Target: TcdB CPD E753R R745E (Clostridioides difficile, UniProt P18177, E753R/R745E)
Assay type: biochemical, Clostridium difficile

inositol hexakisphosphate [InsP6]
factor by which activity is decreased relative to wildtype TcdB CPD: 23
